Data set [1] relates to Human immunodeficiency virus 1. The data set can be described thus: Antiviral activity against HIV1 infected in human H9 cells assessed as effect on virus-induced cytopathic effect by tetrazolium/formazan assay. Type of data set: functional, organism-based. The settings on record: for EC50: Human immunodeficiency virus 1, H9.
For a further data set, the system named is H9. The data set can be described thus: Cytotoxicity against human H9 cells. The data set is classed as cell-based.
Data set [2] is described as follows: Therapeutic index, ratio of IC50 for human H9 cells to EC50 for HIV1. The data set is classed as cell-based. The settings on record: read-out: Ratio IC50/EC50.

The source made the active and inactive calls. No cut-off for these calls is given here.

As a reminder, the IC50 is the point on the concentration scale where inhibition reaches its midpoint. Low values mean higher potency, high ones lower potency. One may read the EC50 as the concentration at which the effect is half-maximal.

Regarding `C/C=C(\C)C(=O)c1c(OC)cc(OC)c2c(CCC)cc(=O)oc12`, the outcome in data set [1] was inactive. This compound also came in with an IC50 with H9 of 1 µM.
The like results for `CCCC1CC(=O)Oc2c(C(=O)C(C)C(C)O)c(O)c3c(c21)OC(C)(C)C=C3` (centres undefined) [CALANOLIDE E2] were, in that order, “inactive” and 2.5 µM.
Take `CCCc1cc(=O)oc2c3c(c4c(c12)OC(C)(C)C=C4)O[C@@H](C)[C@@H](C)[C@@H]3O` [CALANOLIDE F]: the half-maximal effective concentration (EC50) in data set [1] was 2.84 µM. This compound came in with an IC50 with H9 of 12.7 µM. The selectivity ratio in data set [2] was determined as 4.5.
As to `CC1CC(=O)Oc2c(C(=O)C(C)C(C)O)c(O)c3c(c21)OC(C)(C)C=C3` (centres undefined) [CORDATOLIDE E], the result in data set [1] was inactive. Further, the IC50 in the data set on H9 was determined as 14 µM.
On to `CCCc1cc(=O)oc2c3c(c4c(c12)OC(C)(C)C=C4)O[C@@H](C)[C@H](C)[C@@H]3O` [COSTATOLIDE], for which the EC50 in data set [1] stood at 0.22 µM. Besides, the IC50 in the data set with H9 worked out at 9.8 µM. Further, the selectivity ratio in data set [2] stood at 44.5.
With `Cc1cc(=O)oc2c3c(c4c(c12)O[C@@H](C)[C@@H](C)[C@H]4O)OC(C)(C)C=C3` [PSEUDOCARDATOLIDE C], in data set [1], the result was inactive. In the data set on H9, this compound showed an IC50 of 2.6 µM.

Source of the values: ChEMBL document CHEMBL1158273, “New pyranocoumarins isolated from Calophyllum lanigerum and Calophyllum teysmannii” (J Nat Prod, 1996).
